Experimental data reported in patent US20250179047A1, “5-[7-(3,4-DIHYDRO-1H-ISOQUINOLINE-2-CARBONYL)-1,2,3,4 TETRAHYDROISOQUINOLIN-6-YL]-1H-PYRROLE-3-CARBOXAMIDE DERIVATIVES, PHARMACEUTICAL COMPOSITIONS CONTAINING THEM AND THEIR USES AS PRO-APOPTOTIC AGENTS” (LES LABORATOIRES SERVIER, priority 2022, published 2025).

How the values were obtained:
BCL2 D103Y = BCL2 D103Y (Homo sapiens, UniProt P10415, D103Y); assay: TR-FRET competitive binding assay, BCL2 D103Y; conditions: Ki determined from IC50, read-out: TR_FRET EKI_Bcl2 D103Y
Summary of the method: (§1)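 Terbium-labelled N-terminal Halo-fusion BCL2 or BCLXL (E. coli), 0.5 nM, competed against fluorescein-labelled PUMA peptide (2 or 20 nM) for 2 h at 23° C in 50 mM Hepes pH 7.5, 150 mM NaCl, 5% DMSO. TR-FRET 520/495 nm ratio gave IC50 by four-parameter fit; Ki derived from IC50.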

BCL2 WT = BCL2 WT (Homo sapiens (Human), UniProt P10415); assay: TR-FRET competitive binding assay, BCL2 WT; conditions: Ki determined from IC50, read-out: TR_FRET EKI_Bcl2 WT
Summary of the method: as §1

KMS-12-PE Bcl-2 G101V = assay: In vitro cytotoxicity CellTiter-Glo 48 h, KMS-12-PE Bcl-2 G101V; type: cell-based; conditions: for Ratio (G101V/WT): C50 KMS-12-PE Bcl-2 G101V over C50 KMS-12-PE Bcl-2 WT; for IC50: 48 h, CellTiter-Glo, C50 = concentration needed to reach 50% of the cellular viability
Summary of the method: (§2)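 KMS-12-PE myeloma cells were lentivirally transduced with wild-type or G101V-mutant Bcl-2 and sorted by TagRFP. They were exposed to compounds as 11-point dose responses for 48 h at 37 °C, 5% CO2. Viability was read by CellTiter-Glo ATP luminescence, and C50 was the concentration giving 50% viability.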

BCL2 F104I = BCL2 F104I (Homo sapiens, UniProt P10415, F104I); assay: TR-FRET competitive binding assay, BCL2 F104I; conditions: Ki determined from IC50, read-out: TR_FRET EKI_Bcl2 F104I
Summary of the method: as §1

BCLXL WT = BCLXL WT (Homo sapiens (Human), UniProt Q07817); assay: TR-FRET competitive binding assay, BCLXL WT; conditions: for Ki: BCLXL WT, Ki determined from IC50, read-out: TR_FRET EKI BclxL; for TR_FRET EKI BCLxL/WT selectivty ratio: ratio Ki BCLxL / Ki BCL2 WT
Summary of the method: as §1

BCL2 G101V [1] = assay: TR-FRET competitive binding assay, BCL2 G101V; design: species or system human; conditions: ratio Ki BCL2 G101V / Ki BCL2 WT
Summary of the method: as §1

BCL2 G101V [2] = target: BCL2 G101V (Homo sapiens, UniProt P10415, G101V); assay: TR-FRET competitive binding assay, BCL2 G101V; conditions: BCL2 G101V; Ki determined from IC50; read-out: TR_FRET EKI_Bcl2 G101V
Summary of the method: as §1

KMS-12-PE Bcl-2 WT = assay: In vitro cytotoxicity CellTiter-Glo 48 h, KMS-12-PE Bcl-2 WT; type: cell-based; conditions: C50 = concentration needed to reach 50% of the cellular viability
Summary of the method: as §2

BCL2 D111A = BCL2 D111A (Homo sapiens, UniProt P10415, D111A); assay: TR-FRET competitive binding assay, BCL2 D111A; conditions: Ki determined from IC50, read-out: TR_FRET EKI_Bcl2 D111A
Summary of the method: as §1

Chain of BCLXL WT (Q07817 other isoform, or with tags, fused parts or gaps): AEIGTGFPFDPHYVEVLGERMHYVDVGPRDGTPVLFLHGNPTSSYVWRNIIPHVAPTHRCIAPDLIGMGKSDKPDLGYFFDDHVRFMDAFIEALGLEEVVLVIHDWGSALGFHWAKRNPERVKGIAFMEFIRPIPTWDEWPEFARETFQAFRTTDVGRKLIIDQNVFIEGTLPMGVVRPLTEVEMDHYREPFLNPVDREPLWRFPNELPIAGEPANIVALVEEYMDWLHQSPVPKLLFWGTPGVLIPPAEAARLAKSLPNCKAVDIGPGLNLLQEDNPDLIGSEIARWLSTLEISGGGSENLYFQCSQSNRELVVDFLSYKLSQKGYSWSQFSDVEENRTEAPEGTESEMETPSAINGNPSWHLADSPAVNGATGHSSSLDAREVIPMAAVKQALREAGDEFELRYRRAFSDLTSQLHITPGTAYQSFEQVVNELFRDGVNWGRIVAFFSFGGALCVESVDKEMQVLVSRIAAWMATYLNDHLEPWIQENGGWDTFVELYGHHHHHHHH

Row | Compound | Ki (BCL2 D103Y) [nM] | Ki (BCL2 WT) [nM] | Ki (BCL2 F104I) [nM] | Ki (BCLXL WT) [nM] | TR_FRET EKI BCLxL/WT selectivty ratio (BCLXL WT) | TR_FRET EKI G101V/WT selectivty ratio (BCL2 G101V [1]) | Ki (BCL2 G101V [2]) [nM] | Ki (BCL2 D111A) [nM] | Ratio (G101V/WT) (KMS-12-PE Bcl-2 G101V) | IC50 (KMS-12-PE Bcl-2 G101V; Homo sapiens, KMS-12-PE) [µM] | IC50 (KMS-12-PE Bcl-2 WT; Homo sapiens, KMS-12-PE) [µM] | IC50 (KMS-12-PE Bcl-2 G101V) [µM] | IC50 (KMS-12-PE Bcl-2 WT) [µM]
1 | Cc1c(N(C(=O)c2cc(-c3cc4c(cc3C(=O)N3Cc5ccccc5C[C@H]3CN3C[C@H]5C[C@H]5C3)CN(C(=O)Cc3ccc(OCCN5CCOCC5)cc3F)CC4)n(C)c2C)c2ccc(O)cc2)cc(C#N)n1C [Example 120, 5-{7-[(3S)-3-{[cis-3-azabicyclo[3.1.0]hexan-3-yl]methyl}-1,2,3,4-tetrahydroisoquinoline-2-carbonyl]-2-(2-{2-fluoro-4-[2-(morpholin-4-yl)ethoxy]phenyl}acetyl)-1,2,3,4-tetrahydroisoquinolin-6-yl}-N-(5-cyano-1,2-dimethyl-1H-pyrrol-3-yl)-N-(4-hydroxyphenyl)-1,2-dimethyl-1H-pyrrole-3-carboxamide] | 0.21 | 0.1 | 0.37 | 5.3 | 53.0 | 5.2 | 0.5 | 0.3 | 5.83 | 0.0186 | 0.0032 |  | 
2 | Cc1c(N(C(=O)c2cc(-c3cc4c(cc3C(=O)N3Cc5ccccc5C[C@H]3CN3CCCCCC3)CN(C(=O)Cc3ccc(OCCN5CCOCC5)cc3F)CC4)n(C)c2C)c2ccc(O)cc2)cc(C#N)n1C [Example 96, 5-{7-[(3S)-3-[(azepan-1-yl)methyl]-1,2,3,4-tetrahydroisoquinoline-2-carbonyl]-2-(2-{2-fluoro-4-[2-(morpholin-4-yl)ethoxy]phenyl}acetyl)-1,2,3,4-tetrahydroisoquinolin-6-yl}-N-(5-cyano-1,2-dimethyl-1H-pyrrol-3-yl)-N-(4-hydroxyphenyl)-1,2-dimethyl-1H-pyrrole-3-carboxamide] | 0.2 | 0.06 | 0.2 | 2.4 | 37.5 | 5.6 | 0.4 | 0.2 | 5.15 | 0.0291 | 0.0056 |  | 
3 | Cc1c(N(C(=O)c2cc(-c3cc4c(cc3C(=O)N3Cc5ccccc5C[C@H]3CN3CCCCC3)CN(C(=O)Cc3ccc(OCCN5CCN(CCF)CC5)cc3F)CC4)n(C)c2C)c2ccc(O)cc2)cc(C#N)n1C [Example 117, N-(5-cyano-1,2-dimethyl-1H-pyrrol-3-yl)-5-{2-[2-(2-fluoro-4-{2-[4-(2-fluoroethyl)piperazin-1-yl]ethoxy}phenyl)acetyl]-7-[(3S)-3-[(piperidin-1-yl)methyl]-1,2,3,4-tetrahydroisoquinoline-2-carbonyl]-1,2,3,4-tetrahydroisoquinolin-6-yl}-N-(4-hydroxyphenyl)-1,2-dimethyl-1H-pyrrole-3-carboxamide] | 0.11 | 0.05 | 0.18 | 1.7 | 36.2 | 5.3 | 0.3 | 0.11 | 4.09 | 0.033 | 0.0081 |  | 
4 | Cc1c(N(C(=O)c2cc(-c3cc4c(cc3C(=O)N3Cc5ccccc5C[C@H]3C)CN(C(=O)Cc3ccc(OCCN5CCN(C6CC6)CC5)cc3)CC4)n(C)c2C)c2ccc(O)cc2)cc(C#N)n1C [Example 31, N-(5-cyano-1,2-dimethyl-1H-pyrrol-3-yl)-5-[2-(2-{4-[2-(4-cyclopropylpiperazin-1-yl)ethoxy]phenyl}acetyl)-7-[(3R)-3-methyl-1,2,3,4-tetrahydroisoquinoline-2-carbonyl]-1,2,3,4-tetrahydroisoquinolin-6-yl]-N-(4-hydroxyphenyl)-1,2-dimethyl-1H-pyrrole-3-carboxamide] | 0.4 | 0.11 | 0.52 | 1.3 | 11.8 | 2.6 | 0.3 | 0.26 | 4.05 | 0.0312 | 0.0077 |  | 
5 | Cc1c(N(C(=O)c2cc(-c3cc4c(cc3C(=O)N3Cc5ccccc5C[C@H]3C)CN(C(=O)Cc3ccc(OCCN(C)C5CC5)cc3)CC4)n3c2CCCC3)c2ccc(O)cc2)cc(C#N)n1C [Example 35, N-(5-cyano-1,2-dimethyl-pyrrol-3-yl)-3-[2-[2-[4-[2-[cyclopropyl(methyl)amino]ethoxy]phenyl]acetyl]-7-[(3R)-3-methyl-3,4-dihydro-1H-isoquinoline-2-carbonyl]-3,4-dihydro-1H-isoquinolin-6-yl]-N-(4-hydroxyphenyl)-5,6,7,8-tetrahydroindolizine-1-carboxamide] | 1.35 | 0.26 | 0.77 | 2.6 | 10.0 | 2.6 | 0.7 | 0.27 | 3.75 | 0.0254 | 0.0068 |  | 

Continued by falling Ki (BCL2 D103Y), values first:

Row | Ki (BCL2 D103Y) [nM] | Ki (BCL2 WT) [nM] | Ki (BCL2 F104I) [nM] | Ki (BCLXL WT) [nM] | TR_FRET EKI BCLxL/WT selectivty ratio (BCLXL WT) | TR_FRET EKI G101V/WT selectivty ratio (BCL2 G101V [1]) | Ki (BCL2 G101V [2]) [nM] | Ki (BCL2 D111A) [nM] | Compound | Ratio (G101V/WT) (KMS-12-PE Bcl-2 G101V) | IC50 (KMS-12-PE Bcl-2 G101V; Homo sapiens, KMS-12-PE) [µM] | IC50 (KMS-12-PE Bcl-2 WT; Homo sapiens, KMS-12-PE) [µM] | IC50 (KMS-12-PE Bcl-2 G101V) [µM] | IC50 (KMS-12-PE Bcl-2 WT) [µM]
6 | 0.98 | 0.67 | 78 | 13.1 | 19.6 | 10.3 | 6.9 | 1.29 | Cc1c(N(C(=O)c2cc(-c3cc4c(cc3C(=O)N3Cc5ccccc5C[C@H]3C)CN(C(=O)C3CCN(c5ccccc5)C3=O)CC4)n(C)c2C)c2ccc(O)cc2)cc(C#N)n1C (stereo partly drawn) [Example 29] | 3.62 |  |  | 0.0594 | 0.0164
7 | 0.59 | 0.15 | 0.79 | 7.2 | 48.0 | 5.2 | 0.8 | 0.4 | COc1ncc(N(C(=O)c2cc(-c3cc4c(cc3C(=O)N3Cc5ccccc5C[C@H]3C)CN(C(=O)Cc3ccc(OCCN5CCOCC5)cc3F)CC4)n(C)c2C)c2ccc(O)cc2)cc1F [Example 111, 5-[2-(2-{2-fluoro-4-[2-(morpholin-4-yl)ethoxy]phenyl}acetyl)-7-{[(3R)-3-methyl-3,4-dihydro-1H-isoquinolin-2-yl]carbonyl}-3,4-dihydro-1H-isoquinolin-6-yl]-N-(5-fluoro-6-methoxypyridin-3-yl)-N-(4-hydroxyphenyl)-1,2-dimethylpyrrole-3-carboxamide] | 8.18 | 0.0392 | 0.0048 |  | 
8 | 0.58 | 0.12 | 0.34 | 5.8 | 48.3 | 5.8 | 0.7 | 0.28 | Cc1c(N(C(=O)c2cc(-c3cc4c(cc3C(=O)N3Cc5ccccc5C[C@H]3CN3CCC[C@@H](C)C3)CN(C(=O)Cc3ccc(OCCN5CCOCC5)cc3F)CC4)n(C)c2C)c2ccc(O)cc2)cc(C#N)n1C [Example 124, N-(5-cyano-1,2-dimethyl-1H-pyrrol-3-yl)-5-[2-(2-{2-fluoro-4-[2-(morpholin-4-yl)ethoxy]phenyl}acetyl)-7-[(3S)-3-{[(3R)-3-methylpiperidin-1-yl]methyl}-1,2,3,4-tetrahydroisoquinoline-2-carbonyl]-1,2,3,4-tetrahydroisoquinolin-6-yl]-N-(4-hydroxyphenyl)-1,2-dimethyl-1H-pyrrole-3-carboxamide] | 5.62 | 0.0231 | 0.0041 |  | 
9 | 0.19 | 0.07 | 0.17 | 4.3 | 61.4 | 5.4 | 0.4 | 0.13 | Cc1c(N(C(=O)c2cc(-c3cc4c(cc3C(=O)N3Cc5ccccc5C[C@H]3CN3CCCC[C@@H]3C)CN(C(=O)Cc3ccc(OCCN5CCOCC5)cc3F)CC4)n(C)c2C)c2ccc(O)cc2)cc(C#N)n1C [Example 125, N-(5-cyano-1,2-dimethyl-1H-pyrrol-3-yl)-5-[2-(2-{2-fluoro-4-[2-(morpholin-4-yl)ethoxy]phenyl}acetyl)-7-[(3S)-3-{[(2S)-2-methylpiperidin-1-yl]methyl}-1,2,3,4-tetrahydroisoquinoline-2-carbonyl]-1,2,3,4-tetrahydroisoquinolin-6-yl]-N-(4-hydroxyphenyl)-1,2-dimethyl-1H-pyrrole-3-carboxamide] | 4.94 | 0.0178 | 0.0036 |  | 
